ChEMBL document CHEMBL1201862, “PubChem BioAssay data set” (2004)
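Briefly, cells in 96-well plates were exposed to five compound concentrations for 48 h, and endpoints were estimated by linear interpolation. Here, GI50 denotes the concentration required for 50% inhibition of growth.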 The source made the active and inactive calls. Cut-off read from the data, not from the text of the source: active = GI50 up to about 1.1 µM and inactive = higher.

Tests used:
Experiment in all cases: growth of human tumour cells (NCI), 48 h
[1] = test system: EKVX
[2] = test system: HL-60
[3] = test system: OVCAR-3
[4] = test system: COLO 205
[5] = test system: MDA-MB-435
[6] = test system: RXF 393
[7] = test system: TK-10
[8] = test system: HCT-116
[9] = test system: NCI-H522
[10] = test system: SF-295
[11] = test system: A498
[12] = test system: NCI-H226
[13] = test system: MOLT-4
[14] = test system: HCC 2998
[15] = test system: OVCAR-4
[16] = test system: K562
[17] = test system: KM12
[18] = test system: CCRF-CEM
[19] = test system: UACC-257
[20] = test system: Malme-3M

Measured: GI50

COC(=O)C1C(O)C(C)C(O)C(C)C=C(C)C2=C3C(=C(C)C(=O)c4c(O)c(c(C)c(OC(C)=O)c43)NC(=O)C(C)=C/C=C\C(C)C(O)C(C)C1O)OCO2 (stereo not given)
inactive: [1] 34.3 µM | [2] 17.8 µM | [3] 18.6 µM | [4] 19.9 µM | [5] 15.7 µM | [6] 24.9 µM | [7] 56.1 µM | [8] 31.8 µM | [9] 16 µM | [10] 51.6 µM | [11] 29.4 µM | [12] 55.2 µM | [13] 15.6 µM | [14] 34.3 µM | [15] 25.3 µM | [16] 18.6 µM | [17] 31.9 µM | [18] 23.6 µM | [19] 13.4 µM | [20] 16.2 µM

COc1ccc2cc1Oc1ccc(cc1)C(Sc1ccccc1)CCOC(=O)CC2 (stereo not given)
inactive: [1] > 100 µM | [2] 28.1 µM | [3] > 100 µM | [4] > 100 µM | [5] > 100 µM | [6] > 100 µM | [7] > 100 µM | [8] > 100 µM | [9] > 100 µM | [10] > 100 µM | [11] > 100 µM | [12] > 100 µM | [13] > 100 µM | [14] > 100 µM | [15] > 100 µM | [16] 82.8 µM | [17] > 100 µM | [18] > 100 µM | [19] > 100 µM | [20] > 100 µM

Cc1cc2c(cc1-c1cc3c(cc1C)C(C(C)C)=C(O)C(=O)/C3=C\NCC1CCCN3CCCCC13)/C(=C/NCC1CCCN3CCCCC13)C(=O)C(O)=C2C(C)C (stereo not given)
inactive: [1] 7.98 µM | [2] 2.97 µM | [3] 3.01 µM | [4] 3.47 µM | [5] 7.62 µM | [6] 5.93 µM | [7] 8.36 µM | [8] 4.72 µM | [9] 2.84 µM | [10] 6.27 µM | [11] 23.1 µM | [12] 11 µM | [13] 3.52 µM | [14] 17.5 µM | [15] 6.79 µM | [16] 12.2 µM | [17] 5.15 µM | [18] 2.83 µM | [19] 15.3 µM | [20] 10.3 µM

CN(C)CCCC12CCCCC1=Nc1ccccc12 (stereo not given)
inactive: [1] > 100 µM | [2] 26.1 µM | [3] > 100 µM | [4] 48.2 µM | [5] 94.6 µM | [6] > 100 µM | [7] > 100 µM | [8] > 100 µM | [9] 97.7 µM | [10] > 100 µM | [11] > 100 µM | [12] > 100 µM | [13] > 100 µM | [14] > 100 µM | [15] > 100 µM | [16] 74 µM | [17] > 100 µM | [18] 76.6 µM | [19] > 100 µM | [20] > 100 µM

N#C[BH2-][n+]1cn(C2CC(OP(=O)(O)OCC3OC(n4cnc5c(N)ncnc54)CC3O)C(CO)O2)c2nc(N)[nH]c(=O)c21 (stereo not given)
inactive: [1] > 100 µM | [2] > 100 µM | [3] > 100 µM | [4] > 100 µM | [5] > 100 µM | [6] > 100 µM | [7] > 100 µM | [8] > 100 µM | [9] > 100 µM | [10] > 100 µM | [11] > 100 µM | [12] > 100 µM | [13] > 100 µM | [14] > 100 µM | [15] > 100 µM | [16] > 100 µM | [17] > 100 µM | [18] > 100 µM | [19] > 100 µM | [20] > 100 µM

CCC1(CC)CC(=NNS(=O)(=O)c2ccc(C)cc2)C1
inactive: [1] > 100 µM | [2] > 100 µM | [3] > 100 µM | [4] > 100 µM | [5] > 100 µM | [6] > 100 µM | [7] > 100 µM | [8] > 100 µM | [9] > 100 µM | [10] > 100 µM | [11] > 100 µM | [12] > 100 µM | [13] > 100 µM | [14] > 100 µM | [15] > 100 µM | [16] > 100 µM | [17] > 100 µM | [18] > 100 µM | [19] > 100 µM | [20] > 100 µM
